Test results: EP0153845A2, “CRF analogs” (THE SALK INSTITUTE FOR BIOLOGICAL STUDIES, priority 1984, dated 1985)
Square brackets hold non-standard residues; d marks the D form. Ends that are not written are not given here. Peptide text beside a SMILES is read from it. hArg = N=C(N)NCCCC[C@H](N)C(=O)O; Nle = CCCC[C@H](N)C(=O)O; Orn = NCCC[C@H](N)C(=O)O

Tests used:
[1] = biological target: T1, cultured rat pituitary cells (Rattus norvegicus, UniProt P35353); assay: Block of ACTH and β-endorphin secretion by cultured rat pituitary cells by CRF antagonists (procedure of Example XLIII); assay type: cell-based; settings: general procedure of Example XLIII
T1 sequence (P35353 24-415): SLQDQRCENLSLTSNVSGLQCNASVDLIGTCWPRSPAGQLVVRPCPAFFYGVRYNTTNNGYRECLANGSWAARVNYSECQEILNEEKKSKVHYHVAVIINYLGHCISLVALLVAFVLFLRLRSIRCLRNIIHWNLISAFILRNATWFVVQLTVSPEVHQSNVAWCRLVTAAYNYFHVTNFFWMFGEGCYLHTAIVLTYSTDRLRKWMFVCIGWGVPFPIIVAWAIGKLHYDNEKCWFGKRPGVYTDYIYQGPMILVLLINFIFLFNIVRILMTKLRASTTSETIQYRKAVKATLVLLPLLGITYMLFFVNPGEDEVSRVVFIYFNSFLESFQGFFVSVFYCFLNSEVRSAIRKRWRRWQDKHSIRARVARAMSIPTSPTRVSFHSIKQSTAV
Protocol: The effectiveness of synthetic CRF antagonists to block the secretion of ACTH and B-endorphin by cultured rat pituitary cells is measured using the procedure as generally set forth in Vale et al., Endocrinology, 91, 562 (1972). In vivo testing is carried out using the general procedure set forth in C. Rivier et al., Science, 218, 377 (1982).

[2] = Lowering of blood pressure, in vivo testing by the general procedure of Example III
[3] = biological target: T1, cultured rat pituitary cells; assay: Stimulation of ACTH and β-endorphin secretion by cultured rat pituitary cells (general procedure of Example III); assay type: cell-based; settings: general procedure of Example III

Compound	secretion of ACTH and β-END-LI (antagonist test) [1]	lowering of blood pressure [2]	secretion of ACTH and β-END-LI [3]
CCCC[C@H](NC(=O)[C@H](CCC(=O)O)NC(=O)[C@H](CC(C)C)NC(=O)[C@H](CCCC)NC(=O)[C@H](CCC(=O)O)NC(=O)[C@H](CCCNC(=N)N)NC(=O)[C@H](CC(C)C)NC(=O)[C@H](CC(C)C)NC(=O)[C@H](Cc1c[nH]cn1)NC(=O)[C@H](Cc1ccccc1)NC(=O)[C@@H](NC(=O)[C@@H](N)CC(C)C)[C@@H](C)O)C(=O)N[C@@H](C)C(=O)N[C@@H](CCCCN)C(=O)N[C@@H](C)C(=O)N[C@@H](CCC(=O)O)C(=O)N[C@@H](CCC(N)=O)C(=O)N[C@@H](CCC(=O)O)C(=O)N[C@@H](C)C(=O)N[C@@H](CCC(=O)O)C(=O)N[C@@H](CCC(N)=O)C(=O)N[C@@H](C)C(=O)N[C@@H](C)C(=O)N[C@@H](CC(C)C)C(=O)N[C@@H](CC(N)=O)C(=O)N[C@@H](CCCNC(=N)N)C(=O)N[C@@H](CC(C)C)C(=O)N[C@@H](CC(C)C)C(=O)N[C@@H](CC(C)C)C(=O)N[C@@H](CCC(=O)O)C(=O)N[C@@H](CCC(=O)O)C(=O)N[C@@H](C)C(N)=O [[Nle^18,21]-AHC(10-41)] (H-LTFHLLRE[Nle]LE[Nle]AKAEQEAEQAALNRLLLEEA-NH2)	inhibits	–	–
CCCC[C@H](NC(=O)[C@H](CCC(=O)O)NC(=O)[C@H](CC(C)C)NC(=O)[C@@H](NC(=O)[C@H](CCC(=O)O)NC(=O)[C@H](CCCNC(=N)N)NC(=O)[C@H](CC(C)C)NC(=O)[C@H](CC(C)C)NC(=O)[C@H](Cc1c[nH]cn1)NC(=O)[C@H](Cc1ccccc1)NC(=O)[C@@H](NC(=O)[C@H](CC(C)C)NC(=O)[C@@H](N)CC(=O)O)[C@@H](C)O)C(C)C)C(=O)N[C@@H](C)C(=O)N[C@@H](CCCNC(=N)N)C(=O)N[C@@H](C)C(=O)N[C@@H](CCC(=O)O)C(=O)N[C@@H](CCC(N)=O)C(=O)N[C@@H](CC(C)C)C(=O)N[C@@H](C)C(=O)N[C@@H](CCC(N)=O)C(=O)N[C@@H](CCC(N)=O)C(=O)N[C@@H](C)C(=O)N[C@@H](Cc1ccc(O)cc1)C(=O)N[C@@H](CO)C(=O)N[C@@H](CC(N)=O)C(=O)N[C@@H](CCCNC(=N)N)C(=O)N[C@@H](CCCCN)C(=O)N[C@@H](CC(C)C)C(=O)N[C@@H](CCSC)C(=O)N[C@@H](CCC(=O)O)C(=O)N[C@H](C(=O)N[C@H](C(N)=O)[C@@H](C)CC)[C@@H](C)CC [[Nle^21, Tyr^32]-hCRF(9-41)] (H-DLTFHLLREVLE[Nle]ARAEQLAQQAYSNRKLMEII-NH2)	inhibits	–	–
CCCC[C@H](NC(=O)[C@@H](NC(=O)[C@@H](N)CC(C)C)[C@@H](C)O)C(=O)N[C@@H](Cc1c[nH]cn1)C(=O)N[C@@H](CC(C)C)C(=O)N[C@@H](CC(C)C)C(=O)N[C@@H](CCCNC(=N)N)C(=O)N[C@@H](CCC(=O)O)C(=O)N[C@H](C(=O)N[C@@H](CC(C)C)C(=O)N[C@@H](CCC(=O)O)C(=O)N[C@@H](CCSC)C(=O)N[C@@H](C)C(=O)N[C@@H](CCCNC(=N)N)C(=O)N[C@@H](C)C(=O)N[C@@H](CCC(=O)O)C(=O)N[C@@H](CCC(N)=O)C(=O)N[C@@H](CC(C)C)C(=O)N[C@@H](C)C(=O)N[C@@H](CCC(N)=O)C(=O)N[C@@H](CCC(N)=O)C(=O)N[C@@H](C)C(=O)N[C@@H](Cc1c[nH]cn1)C(=O)N[C@@H](CO)C(=O)N[C@@H](CC(N)=O)C(=O)N[C@@H](CCCNC(=N)N)C(=O)N[C@@H](CCCCN)C(=O)N[C@@H](CC(C)C)C(=O)N[C@@H](CCSC)C(=O)N[C@@H](CCC(=O)O)C(=O)N[C@H](C(=O)N[C@H](C(N)=O)[C@@H](C)CC)[C@@H](C)CC)C(C)C [[N1e^12]-hCRF(10-41)] (H-LT[Nle]HLLREVLEMARAEQLAQQAHSNRKLMEII-NH2)	inhibits	–	–
Ac-DLTFHLLREVLEMARAEQLAQQAHSNRKLMDII-NH2 [[Acetyl-Asp^9, Asp^39]-hCRF(9-41)]	inhibits	–	–
CCCC[C@H](NC(=O)[C@@H](NC(=O)[C@H](CCC(=O)O)NC(=O)[C@H](CC(C)C)NC(=O)[C@H](CC(C)C)NC(=O)[C@H](CCCCN)NC(=O)[C@H](CCCNC(=N)N)NC(=O)[C@H](CC(N)=O)NC(=O)[C@H](CO)NC(=O)[C@H](Cc1c[nH]cn1)NC(=O)[C@H](C)NC(=O)[C@H](CCC(N)=O)NC(=O)[C@H](CCC(N)=O)NC(=O)[C@H](C)NC(=O)[C@H](CC(C)C)NC(=O)[C@H](CCC(N)=O)NC(=O)[C@H](CCC(=O)O)NC(=O)[C@H](C)NC(=O)[C@H](CCCNC(=N)N)NC(=O)[C@H](C)NC(=O)[C@H](C)NC(=O)[C@H](CCC(=O)O)NC(=O)[C@H](CC(C)C)NC(=O)[C@@H](NC(=O)[C@H](CCC(=O)O)NC(=O)[C@H](CCCNC(=N)N)NC(=O)[C@H](CC(C)C)NC(=O)[C@H](CC(C)C)NC(=O)[C@H](Cc1c[nH]cn1)NC(=O)[C@H](Cc1ccccc1)NC(=O)[C@@H](NC(=O)[C@H](CC(C)C)NC(=O)[C@@H](N)CC(=O)O)[C@@H](C)O)C(C)C)[C@@H](C)CC)C(N)=O [[Ala, Leu^38, Nle^41]-hCRF(9-41)] (H-DLTFHLLREVLEAARAEQLAQQAHSNRKLLEI[Nle]-NH2)	inhibits	–	–
H-DLTFALLREMLEMAKAEQEAEQAALNRLLLEEA-NH2 [[Ala^13]-AHC(9-41)]	inhibits	–	–
H-LDLTLELLREMLEMEKAEKEAEQAALNRLLLEEA-NH2 [[G1u^13,22, Leu^l2, Lys^26]-AHC(8-41)]	inhibits	–	–
H-DLTLELLREMLEMAKAEQEAEQAALNRLLLEEA-NH2 [[Leu^12, Glu^13]-AHC(9-41)]	inhibits	–	–
H-Asp-CML-Thr-Leu-Glu-CML-CML-Arg-Glu-Met-CML-Glu-Met-CMA-Lys-Ala-Glu-Gln-CML-Ala-Glu-Gln-Ala-CMA-CML-Asn-Arg-Leu-CML-Leu-Glu-Glu-. CMA-NB2	inhibits	–	–
H-DLSLELLRKMIEIEKQEKLKQQAANNRLLMDTI-NH2 [[Leu^26, Met^37]-sauvagine(8-40)]	inhibits	–	–
CC[C@H](C)[C@H](NC(=O)[C@@H]1CCCN1C(=O)[C@@H]1CCCN1)C(=O)N[C@@H](CO)C(=O)N[C@@H](CC(C)C)C(=O)N[C@@H](CC(=O)O)C(=O)N[C@@H](CC(C)C)C(=O)N[C@H](C(=O)N[C@@H](CC(C)C)C(=O)N[C@@H](Cc1c[nH]cn1)C(=O)N[C@@H](CC(C)C)C(=O)N[C@@H](CC(C)C)C(=O)N[C@@H](CCCNC(=N)N)C(=O)N[C@@H](CCC(=O)O)C(=O)N[C@@H](CCSC)C(=O)N[C@@H](CC(C)C)C(=O)N[C@@H](CCC(=O)O)C(=O)N[C@@H](CCSC)C(=O)N[C@@H](CCC(=O)O)C(=O)N[C@@H](CCCN)C(=O)N[C@@H](C)C(=O)N[C@@H](CCC(=O)O)C(=O)N[C@@H](CCC(N)=O)C(=O)N[C@@H](CCC(=O)O)C(=O)N[C@@H](C)C(=O)N[C@@H](CCC(=O)O)C(=O)N[C@@H](CCC(N)=O)C(=O)N[C@@H](C)C(=O)N[C@@H](C)C(=O)N[C@@H](CC(C)C)C(=O)N[C@@H](CC(N)=O)C(=O)N[C@@H](CCCNC(=N)N)C(=O)N[C@@H](CCCCNC(=N)N)C(=O)N[C@@H](CC(C)C)C(=O)N[C@@H](CC(C)C)C(=O)N[C@@H](CCC(=O)O)C(=O)N[C@@H](CCC(=O)O)C(=O)N[C@@H](C)C(N)=O)[C@@H](C)O (H-PPISLDLTLHLLREMLEME[Orn]AEQEAEQAALNR[hArg]LLEEA-NH2)	–	very significant lowering of blood pressure	stimulates
H-SEEPPISLDLTFHLLREVLE[Nle]A[hArg]AEQLAQQAHLNRKLMEE[Nle]-NH2	–	very significant lowering of blood pressure	stimulates
H-SQEPPISLELTFHLLRE[Nle]LE[Nle]AKAEQEAEQAALNRLLLEEA-NH2 [[Glu^9, Nle^18' ^21]-AHC]	–	very significant lowering of blood pressure	stimulates
H-SQE[dP]PISLDLTFHLLRE[Nle]LE[Nle]AKAEQEAEQAALNRLLLEEA-NH2 [[D-Pro^4, Nle^18,21]-AHC]	–	very significant lowering of blood pressure	stimulates
H-SEEPPISLELTFHLLREVLE[Nle]ARAEQLAEQAHLNRKLMEII-NH2 [[Glu^9, Nle^21, Glu^29, Leu^33]-rCRF]	–	very significant lowering of blood pressure to a greater extent than rCRF	stimulates
H-SQEPPISLDLTFHLLRE[Nle]LE[Nle]AKAEQEAEQAALNRLLLEEA-NH2 [[Nle^18, ^21]-AHC]	–	very significant lowering of blood pressure	stimulates
H-SQ[dY][dP]PISLDLTFHLLRE[Nle]LE[Nle]AKAEQEAEQAALNRLLLEEA-NH2 [[D-Tyr^3, D-Pro^4, Nle^18, ^21]-AHC]	–	very significant lowering of blood pressure	stimulates
SEEPPISLDLTFHLLREVLEMTRAEQLAEQAHSNRKLMEEI-NH2 [[Thr^22, Glu^29,40]-rCRF]	–	very significant lowering of blood pressure	stimulates
H-YSEEPPISLDLTFHLLREVLEMARAEQLAEQAHSNRKLMEII-NH2 [[Tyr-Ser^1, Glu^29]-rCRF]	–	very significant lowering of blood pressure	stimulates
